Experimental data from patent publication US4260682A, “High sensitivity assays for angiotensin converting enzyme” (priority 1979, dated 1981).
Each block holds one molecule with its values, some of them ahead of it. Peptide text beside a SMILES is read from it. * marks the point of attachment. Bz = O=C(c1ccccc1)*

How the values were obtained:
ACE [1] = assay: Sulfate and chloride effects on ACE catalysed hydrolysis (general description); type: biochemical
From the text: An assay for ACE, using HipHisLeu as substrate, is herewith described. The assay is more sensitive than any heretofore disclosed using HipHisLeu as substrate. Maximum sensitivity is achieved by the inclusion of sulfate ions, preferably as sodium sulfate, in the reaction mixture. When 0.1 M NaCl is present in the reaction mixture, sulfate ions are stimulatory from 0.1 M to at least 1.1 M. Maximum stimulation occurs in the range from 0.75 M to 1.1 M Na2 SO4.
(§1) An even more sensitive assay for ACE activity has been developed using the novel compound ^3 H-benzoylPheAlaPro as substrate. This new substrate can be used to assay ACE in human urine in incubations as short as 15 minutes. The response of this substrate to ions is strikingly different from the response of HipHisLeu. […] This difficulty has been solved by the proper choice of extracting solvent. While a variety of organic solvents may be suitable for the extraction step, it is preferred to employ toluene. Approximately 88% of ^3 H-benzoylPhe enters the toluene phase while only 6% of the unhydrolyzed substrate enters the toluene phase, when toluene and the acidified reaction mixture are in approximately equal volumes at room temperatures.
(§2) The enzyme is active over a broad pH range with a maximum around pH 8.0, but is at least about 50% active in the range pH 7.0-pH 8.8, for both HipHisLeu and benzoylPheAlaPro. Although the enzyme is active in a variety of buffer systems known in the art, it is preferred for convenience, when using benzoylPheAlaPro as substrate, to conduct the assays in 0.05 M Hepes buffer, pH 8.0 containing 0.15 M sodium chloride. Detailed protocols for carrying out the assay are given in the examples. […] The preferred concentration range is 1×10^-9 M to 7×10^- 5 M.

[2] = Extraction from the acidified reaction mixture into organic solvent; type: physicochemical; conditions: toluene and acidified reaction mixture in approximately equal volumes, room temperature
Procedure: as §1

[3] = test system: enzyme isolated from hog lung (ACE); conditions: cited from earlier work
Guinea pig serum ACE [4] = molecular target: T1, Guinea pig serum ACE (Cavia porcellus, UniProt H0UWL7); assay: Kinetics of (sulfate-stimulated) HipHisLeu hydrolysis; type: biochemical; conditions: 0.05 M Hepes, pH 8.0, 0.1 M NaCl, 0.75 M Na2 SO4; Lineweaver and Burke plot
T1 sequence (H0UWL7 33-1234): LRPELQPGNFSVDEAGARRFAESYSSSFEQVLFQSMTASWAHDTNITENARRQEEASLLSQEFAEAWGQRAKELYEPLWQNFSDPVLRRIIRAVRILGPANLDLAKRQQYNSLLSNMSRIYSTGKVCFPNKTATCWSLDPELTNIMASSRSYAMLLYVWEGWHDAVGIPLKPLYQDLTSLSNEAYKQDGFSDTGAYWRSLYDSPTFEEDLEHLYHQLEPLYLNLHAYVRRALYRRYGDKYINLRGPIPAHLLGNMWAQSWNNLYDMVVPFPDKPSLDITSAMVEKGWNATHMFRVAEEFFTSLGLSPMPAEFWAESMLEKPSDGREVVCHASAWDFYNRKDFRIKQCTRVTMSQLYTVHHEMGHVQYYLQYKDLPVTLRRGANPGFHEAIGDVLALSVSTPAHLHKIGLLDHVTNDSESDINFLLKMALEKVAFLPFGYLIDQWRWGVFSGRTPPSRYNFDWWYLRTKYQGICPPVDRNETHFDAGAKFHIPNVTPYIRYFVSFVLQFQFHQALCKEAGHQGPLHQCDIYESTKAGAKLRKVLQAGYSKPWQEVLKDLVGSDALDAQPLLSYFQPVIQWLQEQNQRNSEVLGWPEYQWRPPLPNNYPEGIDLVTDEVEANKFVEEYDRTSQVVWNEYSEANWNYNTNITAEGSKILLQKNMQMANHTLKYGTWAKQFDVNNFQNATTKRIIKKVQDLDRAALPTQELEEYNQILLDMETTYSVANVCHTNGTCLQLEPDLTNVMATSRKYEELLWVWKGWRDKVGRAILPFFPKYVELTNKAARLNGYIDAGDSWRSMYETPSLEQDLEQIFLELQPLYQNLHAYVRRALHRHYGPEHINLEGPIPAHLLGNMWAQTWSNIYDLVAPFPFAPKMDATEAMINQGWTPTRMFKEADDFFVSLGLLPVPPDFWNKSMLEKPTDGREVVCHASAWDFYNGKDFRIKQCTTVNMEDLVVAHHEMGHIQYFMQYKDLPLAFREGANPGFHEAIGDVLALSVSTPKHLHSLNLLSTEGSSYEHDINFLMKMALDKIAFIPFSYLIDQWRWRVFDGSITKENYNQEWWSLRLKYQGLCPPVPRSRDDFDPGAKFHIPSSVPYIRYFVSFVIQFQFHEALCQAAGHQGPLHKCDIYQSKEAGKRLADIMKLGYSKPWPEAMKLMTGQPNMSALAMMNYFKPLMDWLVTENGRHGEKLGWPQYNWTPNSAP
Procedure: Kinetics of Sulfate-Stimulated HipHisLeu Hydrolysis
In each assay, 50 μl of Guinea pig serum diluted 1-20 (v/v) in the reaction buffer was mixed with 50 μl of buffer containing sufficient ^3 H-HipHisLeu to provide approximately 100,000 cpm total, together with sufficient unlabeled HipHisLeu to produce the desired substrate concentrations, as indicated in Table 2. […] The reaction mixture was then extracted with 1 ml ethyl acetate. 500 μl of the ethyl acetate fraction was sampled and counted in a scintillation counter.

ACE [5] = molecular target: ACE (Homo sapiens, UniProt P12821); assay: Comparison of sensitivity of ACE radioassays; type: biochemical
ACE (Homo sapiens, UniProt P12821), sequence (P12821 30-1306, species assumed): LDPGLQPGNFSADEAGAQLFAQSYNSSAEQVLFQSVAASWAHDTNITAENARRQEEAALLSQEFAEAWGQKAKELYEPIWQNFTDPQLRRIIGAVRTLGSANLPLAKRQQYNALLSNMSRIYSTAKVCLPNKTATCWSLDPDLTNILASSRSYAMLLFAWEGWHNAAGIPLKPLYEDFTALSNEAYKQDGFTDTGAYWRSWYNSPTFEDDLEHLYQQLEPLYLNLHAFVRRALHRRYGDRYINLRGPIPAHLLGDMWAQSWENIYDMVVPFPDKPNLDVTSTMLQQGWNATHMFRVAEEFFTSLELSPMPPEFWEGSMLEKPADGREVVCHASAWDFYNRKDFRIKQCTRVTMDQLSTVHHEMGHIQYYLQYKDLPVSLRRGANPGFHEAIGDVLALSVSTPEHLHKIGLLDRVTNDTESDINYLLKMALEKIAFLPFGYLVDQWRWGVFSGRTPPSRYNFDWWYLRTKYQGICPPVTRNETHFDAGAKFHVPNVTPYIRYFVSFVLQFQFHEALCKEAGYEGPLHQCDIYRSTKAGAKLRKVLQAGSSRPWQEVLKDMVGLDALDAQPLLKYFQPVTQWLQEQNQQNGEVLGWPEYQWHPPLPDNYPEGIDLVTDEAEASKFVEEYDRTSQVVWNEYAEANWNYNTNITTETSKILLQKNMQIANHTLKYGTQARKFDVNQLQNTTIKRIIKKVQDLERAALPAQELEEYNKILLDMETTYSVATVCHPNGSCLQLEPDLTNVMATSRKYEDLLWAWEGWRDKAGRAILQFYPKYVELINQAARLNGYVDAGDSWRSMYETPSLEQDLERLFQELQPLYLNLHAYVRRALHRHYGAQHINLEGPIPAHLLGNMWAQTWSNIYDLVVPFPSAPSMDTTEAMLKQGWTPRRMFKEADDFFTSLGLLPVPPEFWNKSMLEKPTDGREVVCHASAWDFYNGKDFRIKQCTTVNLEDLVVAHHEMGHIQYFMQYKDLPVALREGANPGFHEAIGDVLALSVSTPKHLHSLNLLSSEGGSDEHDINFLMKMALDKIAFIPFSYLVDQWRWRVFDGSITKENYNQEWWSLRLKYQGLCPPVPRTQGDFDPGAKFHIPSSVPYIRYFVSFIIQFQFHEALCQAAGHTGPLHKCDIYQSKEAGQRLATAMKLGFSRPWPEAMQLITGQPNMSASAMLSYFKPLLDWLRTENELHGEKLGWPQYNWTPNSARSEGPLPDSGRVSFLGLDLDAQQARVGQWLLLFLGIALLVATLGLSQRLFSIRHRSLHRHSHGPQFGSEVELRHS
From the text: A comparison of the sensitivity of the disclosed assay methods with each other and with prior art assays may be made by considering assays which depend upon measuring the radioactivity of the remnant reaction product. A prior art assay of this type, using ^3 H-HipGlyGly as substrate has been described (Ryan and Chung, supra). Of the two assays disclosed herein, the sulfate stimulated hydrolysis of ^3 H-HipHisLeu is approximately 20 times more sensitive, and the ^3 H-benzoylPheAlaPro assay is about 10 times more sensitive still. The latter is therefore approximately 200 times more sensitive than the assay using ^3 H-HipGlyGly.

Guinea pig urinary ACE = molecular target: T2, Guinea pig urinary ACE (Cavia porcellus, UniProt H0UWL7); assay: Sulfate and chloride effects on ACE catalysed substrate hydrolysis; type: biochemical; conditions: 0.05 Hepes, pH 8.0, 0.15M HCl
T2 sequence (H0UWL7 33-1302): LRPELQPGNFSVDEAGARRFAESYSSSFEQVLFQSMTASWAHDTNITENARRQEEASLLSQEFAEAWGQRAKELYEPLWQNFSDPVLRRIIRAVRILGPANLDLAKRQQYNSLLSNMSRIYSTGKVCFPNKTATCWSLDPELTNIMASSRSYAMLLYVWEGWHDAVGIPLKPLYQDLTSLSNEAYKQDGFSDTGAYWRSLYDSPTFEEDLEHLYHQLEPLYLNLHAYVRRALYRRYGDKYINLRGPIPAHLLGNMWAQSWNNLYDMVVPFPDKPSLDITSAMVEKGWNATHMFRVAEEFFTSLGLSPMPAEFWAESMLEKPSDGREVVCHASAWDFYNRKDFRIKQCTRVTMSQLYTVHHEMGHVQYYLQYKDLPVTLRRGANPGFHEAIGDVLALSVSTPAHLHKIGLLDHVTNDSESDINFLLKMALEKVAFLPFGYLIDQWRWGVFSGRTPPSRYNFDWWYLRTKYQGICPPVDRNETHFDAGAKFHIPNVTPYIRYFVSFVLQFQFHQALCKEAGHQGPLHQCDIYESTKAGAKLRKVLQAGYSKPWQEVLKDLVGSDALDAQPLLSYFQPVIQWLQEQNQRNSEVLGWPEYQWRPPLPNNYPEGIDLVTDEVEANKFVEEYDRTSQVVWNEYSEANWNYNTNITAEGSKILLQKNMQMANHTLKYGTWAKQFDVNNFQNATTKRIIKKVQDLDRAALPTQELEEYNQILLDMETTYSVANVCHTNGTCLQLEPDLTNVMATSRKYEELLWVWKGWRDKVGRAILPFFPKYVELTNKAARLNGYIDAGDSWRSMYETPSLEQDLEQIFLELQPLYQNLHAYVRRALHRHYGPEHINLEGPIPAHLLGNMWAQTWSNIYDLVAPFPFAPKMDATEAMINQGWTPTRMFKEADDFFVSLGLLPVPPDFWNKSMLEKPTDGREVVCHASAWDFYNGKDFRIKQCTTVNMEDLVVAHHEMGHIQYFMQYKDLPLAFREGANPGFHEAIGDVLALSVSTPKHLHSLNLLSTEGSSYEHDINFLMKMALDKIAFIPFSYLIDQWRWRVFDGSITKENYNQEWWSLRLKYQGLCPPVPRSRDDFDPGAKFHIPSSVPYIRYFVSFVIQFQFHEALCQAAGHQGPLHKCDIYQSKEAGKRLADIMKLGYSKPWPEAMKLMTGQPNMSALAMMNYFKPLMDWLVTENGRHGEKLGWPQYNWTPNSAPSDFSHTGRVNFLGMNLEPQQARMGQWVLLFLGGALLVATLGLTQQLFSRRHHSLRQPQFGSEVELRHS

ACE [6] = assay: pH dependence of ACE activity; type: biochemical
From the text: as §2

Guinea pig serum ACE [7] = molecular target: T1, Guinea pig serum ACE; assay: Kinetics of benzoyl-Phe-Ala-Pro hydrolysis; conditions: for V (reaction velocity): 0.05 M Hepes, pH 8.0, 0.15 M NaCl, 37° C., serum 1:1000
Procedure: Kinetics of Benzoyl-Phe-Ala-Pro Hydrolysis
The apparent Km for the ACE catalyzed hydrolysis of benzoyl-Phe-Ala-Pro was measured in the following manner. […] Guinea pig serum was diluted 1:1000 to provide the enzyme. A mixture of 50 μl diluted serum and 50 μl of substrate, diluted in the reaction buffer to provide the appropriate substrate concentration for each experiment, was incubated at 37° C. for 10 minutes. At the end of the incubation, 1.0 ml of 0.1 M HCl was added to stop the reaction. The reaction mixture was then extracted with 1.0 ml toluene, and a 0.5 ml aliquot of the toluene phase was counted in a scintillation counter.

ACE from rabbit lung = conditions: HipHisLeu as substrate; cited from earlier work
[8] = sulfate ion 0.6 M, 0.1 M chloride, pH 8

Molecule: [Cl-].[Na+] [NaCl, sodium chloride]
effect of NaCl on reaction velocity of ^3 H-benzoylPheAlaPro (ACE [1]; 0.01 M added NaCl): increases reaction velocity
increase of apparent reaction velocity of ^3 H-benzoylPheAlaPro (ACE [1]; 0.05 M added sodium chloride): approximately 3 fold
effect on ACE catalyzed hydrolysis of HipHisLeu (ACE [1]; NaCl 0.75 to 1.1 M): seriously inhibits
further increase of reaction velocity of ^3 H-benzoylPheAlaPro (ACE [1]; additional sodium chloride, up to 0.5 M): little further increase

fraction entering the toluene phase [2]: Approximately 88%
Molecule: [3H]c1ccc(C(=O)N[C@@H](Cc2ccccc2)C(=O)O)cc1 [^3 H-benzoylPhe]

Molecule: O=C(O)CNC(=O)CNC(=O)CNC(=O)c1ccccc1 [HipGlyGly] (Bz-Gly-Gly-Gly-OH)
dependence of hydrolysis on added chloride (ACE [1]; sulfate present): remains dependent upon the presence of added chloride for activity
hydrolysis in the absence of NaCl ([3]; Na2 SO4 0.001 M to 0.6 M): no hydrolysis
decrease of Km [3, 8]: about 15%
increase of Vmax [3, 8]: about 5 fold

Molecule: ^3 H-HipHisLeu
Km (Guinea pig serum ACE [4]): 177 µM
sensitivity relative to the assay using ^3 H-HipGlyGly (ACE [5]; radioactivity of remnant product, HipHisLeu assay sulfate stimulated): approximately 20 times

Molecule: C[C@H](NC(=O)[C@H](Cc1ccccc1)NC(=O)c1ccccc1)C(=O)N1CCC[C@H]1C(=O)O [benzoylPheAlaPro, benzoyl-Phe-Ala-Pro] (Bz-Phe-Ala-Pro-OH)
Reaction Velocity, Per Cent of Substrate Hydrolyzed in 10 minutes (Guinea pig urinary ACE; Na2 SO4 0 M): 4.4 Per Cent
Reaction Velocity, Per Cent of Substrate Hydrolyzed in 10 minutes (Guinea pig urinary ACE; Na2 SO4 0.1 M): 5.0 Per Cent
Reaction Velocity, Per Cent of Substrate Hydrolyzed in 10 minutes (Guinea pig urinary ACE; Na2 SO4 0.2 M): 4.45 Per Cent
Reaction Velocity, Per Cent of Substrate Hydrolyzed in 10 minutes (Guinea pig urinary ACE; Na2 SO4 0.3 M): 4.85 Per Cent
Reaction Velocity, Per Cent of Substrate Hydrolyzed in 10 minutes (Guinea pig urinary ACE; Na2 SO4 0.5 M): 5.6 Per Cent
sensitivity relative to the sulfate-stimulated HipHisLeu assay (ACE [5]): ten to twenty
pH of maximum activity (ACE [6]): ~8.0 pH
activity of enzyme (relative to maximum) (ACE [6]; range pH 7.0-pH 8.8): at least 50%
1/V (Guinea pig serum ACE [7]; BenzPheAlaPro 1.0 μM): 1.50 pmole^-1 · min .multi
V (reaction velocity) (Guinea pig serum ACE [7]; BenzPheAlaPro 1.0 μM): 0.67 pmol/min/mL
1/V (Guinea pig serum ACE [7]; BenzPheAlaPro 5.0 μM): 0.48 pmole^-1 · min .multi
V (reaction velocity) (Guinea pig serum ACE [7]; BenzPheAlaPro 5.0 μM): 2.08 pmol/min/mL
1/V (Guinea pig serum ACE [7]; BenzPheAlaPro 10.0 μM): 0.24 pmole^-1 · min .multi
V (reaction velocity) (Guinea pig serum ACE [7]; BenzPheAlaPro 10.0 μM): 4.17 pmol/min/mL
1/V (Guinea pig serum ACE [7]; BenzPheAlaPro 66.7 μM): 0.11 pmole^-1 · min .multi
V (reaction velocity) (Guinea pig serum ACE [7]; BenzPheAlaPro 66.7 μM): 9.09 pmol/min/mL
sensitivity of Km to the presence of sulfate (Guinea pig serum ACE [7]; sulfate present): relatively insensitive to the presence of sulfate

Molecule: O=S(=O)([O-])[O-].[Na+].[Na+] [Na2 SO4, sodium sulfate]
reaction rate vs. buffer containing 0.1 M NaCl and lacking Na2 SO4 (ACE [1]; 0.9 M to 1.2 M Na2 SO4, no added NaCl, 0.05 M Hepes, pH 8.0, HipHisLeu): faster
stimulation by sodium sulfate (ACE [1]; ^3 H-benzoylPheAlaPro as substrate): not stimulatory
ability to meet the chloride requirement (ACE from rabbit lung): not

Molecule: [Cl-].[Cl-].[Mg+2] [MgCl2]
ability to meet the chloride requirement (ACE from rabbit lung): could be met
